In general, IC50 refers to the point on the concentration scale where inhibition reaches its midpoint.

Experimental findings from patent US10189854B2, “Substituted pyrimidine compounds” (Grünenthal GmbH, priority 2014, dated 2019) are described below.

This experiment concerns the target human PDE4B1 (Homo sapiens (Human), UniProt Q07343). Briefly: cAMP HTRF assay to determine the activity of hPDE4B1. The class given is biochemical. To be noted: IC50 inhibition of PDE4B; human recombinant PDE4B1, cAMP HTRF assay. The gist of the method:
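Recombinant human PDE4B1 expressed in Sf9 cells (4.8 U) was incubated with 40 nM cAMP for 30 min at room temperature in Tris buffer, pH 7.8, with MgCl2, DTT and Tween 20. HTRF detection of remaining cAMP followed, with 1 mM IBMX stop, read 60 min later as the 665/620 nm ratio. Results are % inhibition versus control.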
(In general: Time-resolved FRET reads energy transfer from a long-lived donor to a nearby acceptor.)

Sequence of human PDE4B1 (Q07343 whole entry): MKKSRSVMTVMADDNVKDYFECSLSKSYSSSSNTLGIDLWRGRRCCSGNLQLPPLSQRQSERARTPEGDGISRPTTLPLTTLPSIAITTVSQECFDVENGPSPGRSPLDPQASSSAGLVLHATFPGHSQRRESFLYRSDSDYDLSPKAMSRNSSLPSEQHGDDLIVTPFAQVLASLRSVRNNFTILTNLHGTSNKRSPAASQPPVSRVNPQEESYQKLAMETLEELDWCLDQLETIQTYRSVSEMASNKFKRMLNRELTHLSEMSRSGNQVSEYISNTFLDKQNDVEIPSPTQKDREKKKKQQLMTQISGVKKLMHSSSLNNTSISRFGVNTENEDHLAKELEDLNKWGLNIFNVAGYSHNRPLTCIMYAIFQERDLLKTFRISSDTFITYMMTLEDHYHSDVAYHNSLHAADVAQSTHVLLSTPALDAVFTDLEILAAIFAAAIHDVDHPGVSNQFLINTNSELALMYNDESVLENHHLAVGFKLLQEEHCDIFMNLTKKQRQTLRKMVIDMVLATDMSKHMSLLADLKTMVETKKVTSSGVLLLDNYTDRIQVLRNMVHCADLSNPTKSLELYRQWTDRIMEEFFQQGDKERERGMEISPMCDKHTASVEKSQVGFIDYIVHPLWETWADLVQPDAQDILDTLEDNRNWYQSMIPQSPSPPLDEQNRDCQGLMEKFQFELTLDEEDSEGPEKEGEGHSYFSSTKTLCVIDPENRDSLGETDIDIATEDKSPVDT

With “1-[5-(3-Carbamoyl-phenyl)-pyrimidin-2-yl]-N-(2-hydroxy-ethyl)-N-methyl-spiro[1,2-dihydro-indole-3,1′-cyclopropane]-6-carboxylic acid amide [Compound 198]”, the half-inhibitory concentration (IC50) was below 0.1 µM. Then `COC[C@@H]1CCCN1C(=O)c1ccc2c(c1)N(c1ncc(-c3ccccc3F)cn1)CC21CC1` [Compound 92, [1-[5-(2-Fluorophenyl)-pyrimidin-2-yl]-spiro[1,2-dihydro-indole-3,1′-cyclopropane]-6-yl]-[(2S)-2-(methoxymethyl)-pyrrolidin-1-yl]-methanone], with 0.1 to 1 µM.

With `O=C(c1ccc2c(c1)N(c1ncc(-c3cccc(Cl)c3)cn1)CC21CC1)N1CCOCC1` [Compound 51, [1-[5-(3-Chlorophenyl)-pyrimidin-2-yl]-spiro[1,2-dihydro-indole-3,1′-cyclopropane]-6-yl]-morpholin-4-yl-methanone], the IC50 was in the range of 0.1 to 1 µM.

For the compound `Cc1cccc(F)c1-c1cnc(N2CC3(CC3)c3ccc(C(=O)N4CCOCC4)cc32)nc1` [Compound 69, [1-[5-(2-Fluoro-6-methyl-phenyl)-pyrimidin-2-yl]-spiro[1,2-dihydro-indole-3,1′-cyclopropane]-6-yl]-morpholin-4-yl-methanone], the IC50 fell in the range of 0.1 to 1 µM. For the compound `N#Cc1csc(-c2cnc(N3CC4(CC4)c4ccc(C(=O)N5CCOCC5)cc43)nc2)c1` [Compound 161, 5-[2-[6-(Morpholine-4-carbonyl)-spiro[1,2-dihydro-indole-3,1′-cyclopropane]-1-yl]-pyrimidin-5-yl]-thiophene-3-carbonitrile], the half-maximal inhibitory concentration (IC50) was below 0.1 µM. As to `CC(C)(O)c1ccc(-c2cnc(N3CC4(CC4)c4ccc(C(=O)N5CCOCC5)cc43)nc2)s1` [Compound 207, [1-[5-[5-(1-Hydroxy-1-methyl-ethyl)-thiophen-2-yl]-pyrimidin-2-yl]-spiro[1,2-dihydro-indole-3,1′-cyclopropane]-6-yl]-morpholin4--yl-methanone], the IC50 is below 0.1 µM. For `O=C(c1ccc2c(c1)N(c1ncc(-c3ccccc3F)cn1)CC21CC1)N1CC[C@@H](O)C1` [Compound 44, [1-[5-(2-Fluorophenyl)-pyrimidin-2-yl]-spiro[1,2-dihydro-indole-3,1′-cyclopropane]-6-yl]-[(3R)-3-hydroxy-pyrrolidin-1-yl]-methanone], the IC50 is below 0.1 µM.

For “1-[5-(3-Cyano-phenyl)-pyrimidin-2-yl]-N-(2-hydroxy-ethyl)-N-methyl-spiro[1,2-dihydro-indole-3,1′-cyclopropane]-6-carboxylic acid amide [Compound 194]”, the half-inhibitory concentration (IC50) is below 0.1 µM. Then `O=C(c1ccc2c(c1)N(c1ncc(-c3ccccc3F)cn1)CC21CC1)N1CC2CC1CN2CCO` (stereo not shown) [Compound 218, [1-[5-(2-Fluorophenyl)-pyrimidin-2-yl]-spiro[1,2-dihydro-indole-3,1′-cyclopropane]-6-yl]-[5-(2-hydroxy-ethyl)-2,5-diazabicyclo[2.2.1]heptan-2-yl]-methanone], with 0.1 to 1 µM; and “Morpholin-4-yl-[1-(5-pyridazin-4-yl-pyrimidin-2-yl)-spiro[1,2-dihydro-indole-3,1′-cyclopropane]-6-yl]-methanone [Compound 200]”, with below 0.1 µM. Then `O=C1CN(C(=O)c2ccc3c(c2)N(c2ncc(-c4ccccc4F)cn2)CC32CC2)CCN1` [Compound 4, 4-[1-[5-(2-Fluorophenyl)-pyrimidin-2-yl]-spiro[1,2-dihydro-indole-3,1′-cyclopropane]-6-carbonyl]-piperazin-2-one], with below 0.1 µM. In the case of `N#Cc1ccc(F)c(-c2cnc(N3CC4(CC4)c4ccc(C(=O)N5CCOCC5)cc43)nc2)c1` [Compound 22, 4-Fluoro-3-[2-[6-(morpholine-4-carbonyl)-spiro[1,2-dihydro-indole-3,1′-cyclopropane]-1-yl]-pyrimidin-5-yl]-benzonitrile] it was below 0.1 µM; in that of `O=C(c1ccc2c(c1)N(c1ncc(-c3ccc(F)cc3)cn1)CC21CC1)N1CCOCC1` [Compound 43, [1-[5-(4-Fluorophenyl)-pyrimidin-2-yl]-spiro[1,2-dihydro-indole-3,1′-cyclopropane]-6-yl]-morpholin-4-yl-methanone], below 0.1 µM; in that of `O=C1CN(C(=O)c2ccc3c(c2)N(c2ncc(-c4cccnc4F)cn2)CC32CC2)CCN1` [Compound 176, 4-[1-[5-(2-Fluoro-pyridin-3-yl)-pyrimidin-2-yl]-spiro[1,2-dihydro-indole-3,1′-cyclopropane]-6-carbonyl]-piperazin-2-one], below 0.1 µM. Consider “[1-[5-(6-Fluoro-pyrimidin-4-yl)-pyrimidin-2-yl]-spiro[1,2-dihydro-indole-3,1′-cyclopropane]-6-yl]-morpholin-4-yl-methanone [Compound 205]”, for which the half-inhibitory concentration (IC50) was below 0.1 µM. In the case of `COc1cccc(F)c1-c1cnc(N2CC3(CC3)c3ccc(C(=O)N4CCOCC4)cc32)nc1` [Compound 19, [1-[5-(2-Fluoro-6-methoxy-phenyl)-pyrimidin-2-yl]-spiro[1,2-dihydro-indole-3,1′-cyclopropane]-6-yl]-morpholin-4-yl-methanone] it was 0.1 to 1 µM.

On to `COCC1CCN(C(=O)c2ccc3c(c2)N(c2ncc(-c4ccccc4F)cn2)CC32CC2)CC1` [Compound 217, [1-[5-(2-Fluorophenyl)-pyrimidin-2-yl]-spiro[1,2-dihydro-indole-3,1′-cyclopropane]-6-yl]-[4-(methoxymethyl)-piperidin-1-yl]-methanone], for which the IC50 was 1 to 10 µM. With “[1-[5-(2-Methyl-pyrimidin-4-yl)-pyrimidin-2-yl]-spiro[1,2-dihydro-indole-3,1′-cyclopropane]-6-yl]-morpholin-4-yl-methanone [Compound 185]”, the 50% inhibitory concentration (IC50) was below 0.1 µM. Turning to “[1-[5-(6-Methoxy-pyridazin-3-yl)-pyrimidin-2-yl]-spiro[1,2-dihydro-indole-3,1′-cyclopropane]-6-yl]-morpholin-4-yl-methanone [Compound 201]”, the half-maximal inhibitory concentration (IC50) was below 0.1 µM. In the case of `CN(C)C(=O)c1ccc(-c2cnc(N3CC4(CC4)c4ccc(C(=O)N5CCOCC5)cc43)nc2)c(F)c1` [Compound 65, 3-Fluoro-N,N-dimethyl-4-[2-[6-(morpholine-4-carbonyl)-spiro[1,2-dihydro-indole-3,1′-cyclopropane]-1-yl]-pyrimidin-5-yl]-benzamide] it was below 0.1 µM; in that of `COc1cccc(-c2cnc(N3CC4(CC4)c4ccc(C(=O)N5CCOCC5)cc43)nc2)c1` [Compound 48, [1-[5-(3-Methoxyphenyl)-pyrimidin-2-yl]-spiro[1,2-dihydro-indole-3,1′-cyclopropane]-6-yl]-morpholin-4-yl-methanone], below 0.1 µM. Turning to `O=C(c1ccc2c(c1)N(c1ncc(-c3cn[nH]c3C(F)(F)F)cn1)CC21CC1)N1CCOCC1` [Compound 140, Morpholin-4-yl-[1-[5-[5-(trifluoromethyl)-1H-pyrazol-4-yl]-pyrimidin-2-yl]-spiro[1,2-dihydro-indole-3,1′-cyclopropane]-6-yl]-methanone], the 50% inhibitory concentration (IC50) is below 0.1 µM. Take `O=C(c1ccc2c(c1)N(c1ncc(-c3ccncc3)cn1)CC21CC1)N1CCOCC1` [Compound 146, Morpholin-4-yl-[1-(5-pyridin-4-yl-pyrimidin-2-yl)-spiro[1,2-dihydro-indole-3,1′-cyclopropane]-6-yl]-methanone]: the IC50 is below 0.1 µM. Then `O=C(c1ccc2c(c1)N(c1ncc(-c3cc(OC(F)(F)F)ccc3F)cn1)CC21CC1)N1CCNCC1` [Compound 72, [1-[5-[2-Fluoro-5-(trifluoromethyloxy)-phenyl]-pyrimidin-2-yl]-spiro[1,2-dihydro-indole-3,1′-cyclopropane]-6-yl]-piperazin-1-yl-methanone], with below 0.1 µM; and `Cn1cccc1-c1cnc(N2CC3(CC3)c3ccc(C(=O)N4CCOCC4)cc32)nc1` [Compound 141, [1-[5-(1-Methyl-1H-pyrrol-2-yl)-pyrimidin-2-yl]-spiro[1,2-dihydro-indole-3,1′-cyclopropane]-6-yl]-morpholin-4-yl-methaone], with below 0.1 µM. Turning to `COc1ccc(C(N)=O)c(-c2cnc(N3CC4(CC4)c4ccc(C(=O)N5CCOCC5)cc43)nc2)c1` [Compound 113, 4-Methoxy-2-[2-[6-(morpholine-4-carbonyl)-spiro[1,2-dihydro-indole-3,1′-cyclopropane]-1-yl]-pyrimidin-5-yl]-benzamide], the IC50 was in the range of 0.1 to 1 µM. Consider `CN(C)C(=O)c1ccccc1-c1cnc(N2CC3(CC3)c3ccc(C(=O)N4CCOCC4)cc32)nc1` [Compound 21, N,N-Dimethyl-2-[2-[6-(morpholine-4-carbonyl)-spiro[1,2-dihydro-indole-3,1′-cyclopropane]-1-yl]-pyrimidin-5-yl]-benzamide], for which the IC50 lay within 0.1 to 1 µM. Then `CN(C)c1ccnc(-c2cnc(N3CC4(CC4)c4ccc(C(=O)N5CCOCC5)cc43)nc2)c1` [Compound 208, [1-[5-(4-Dimethylamino-pyridin-2-yl)-pyrimidin-2-yl]-spiro[1,2-dihydro-indole-3,1′-cyclopropane]-6-yl]-morpholin-4-yl-methanone], with below 0.1 µM.

For `O=C(c1ccc2c(c1)N(c1ncc(-c3cccc(F)c3F)cn1)CC21CC1)N1CCOCC1` [Compound 15, [1-[5-(2,3-Difluoro-phenyl)-pyrimidin-2-yl]-spiro[1,2-dihydro-indole-3,1′-cyclopropane]-6-yl]-morpholin-4-yl-methanone], the half-maximal inhibitory concentration (IC50) was below 0.1 µM. In the case of `CC(=O)Nc1ccc(-c2cnc(N3CC4(CC4)c4ccc(C(=O)N5CCOCC5)cc43)nc2)s1` [Compound 158, N-[5-[2-[6-(Morpholine-4-carbonyl)-spiro[1,2-dihydro-indole-3,1′-cyclopropane]-1-yl]-pyrimidin-5-yl]-thiophen-2-yl]-acetamide] it was below 0.1 µM. In the case of `O=C(c1ccc2c(c1)N(c1ncc(-c3ccccn3)cn1)CC21CC1)N1CCOCC1` [Compound 150, Moprholin-4-yl-[1-(5-pyridin-2-yl-pyrimidin-2-yl)-spiro[1,2-dihydro-indole-3,1′-cyclopropane]-6-yl]-methanone] it was below 0.1 µM.
